Experimental data as given in patent publication US12637437B2, “Herbicidal compounds” (SYNGENTA CROP PROTECTION AG, priority 2021, dated 2026).

Assays:
Format in all cases: in vivo
Setaria faberi (SETFA) [1] = assay: Pre-emergence herbicidal glasshouse test, SETFA; details: 125 g/h, evaluated after 13 days, five-point scale
Experimental: (§1) Seeds of a variety of test species are sown in standard soil in pots (Lolium perenne (LOLPE), Amaranthus retoflexus (AMARE), Abutilon theophrasti (ABUTH), Setaria faberi (SETFA), Echinochloa crus-galli (ECHCG), Ipomoea hederacea (IPOHE)). After cultivation for one day (pre-emergence) or after 8 days cultivation (post-emergence) under controlled conditions in a glasshouse (at 24/16° C., day/night; 14 hours light; 65% humidity), the plants are sprayed with an aqueous spray solution derived from the formulation of the technical active ingredient in acetone/water (50:50) solution containing 0.5% Tween 20 (polyoxyethelyene sorbitan monolaurate, CAS RN 9005-64-5). Compounds are applied at 125 g/h unless otherwise indicated. The test plants are then grown in a glasshouse under controlled conditions in a glasshouse (at 24/16° C., day/night; 14 hours light; 65% humidity) and watered twice daily. After 13 days for pre and post-emergence, the test is evaluated for the percentage damage caused to the plant. The biological activities are shown in the following table on a five-point scale (5=80-100%; 4=60-79%; 3=40-59%; 2=20-39%; 1=0-19%). “—” denotes not tested on this species or data not captured.

[2] = test system: Echinochloa crus-galli (ECHCG); assay: Post-emergence herbicidal glasshouse test, ECHCG; details: 125 g/h, evaluated after 13 days, five-point scale
Experimental: as §1

[3] = test system: Ipomoea hederacea (IPOHE); assay: Post-emergence herbicidal glasshouse test, IPOHE; details: 125 g/h, evaluated after 13 days, five-point scale
Experimental: as §1

[4] = test system: Ipomoea hederacea (IPOHE); assay: Pre-emergence herbicidal glasshouse test, IPOHE; details: 125 g/h, evaluated after 13 days, five-point scale
Experimental: as §1

Setaria faberi (SETFA) [5] = assay: Post-emergence herbicidal glasshouse test, SETFA; details: 125 g/h, evaluated after 13 days, five-point scale
Experimental: as §1

[6] = test system: Amaranthus retoflexus (AMARE); assay: Pre-emergence herbicidal glasshouse test, AMARE; details: 125 g/h, evaluated after 13 days, five-point scale
Experimental: as §1

[7] = test system: Amaranthus retoflexus (AMARE); assay: Post-emergence herbicidal glasshouse test, AMARE; set-up: dose or concentration left out as unconfirmed; details: evaluated after 13 days, five-point scale
Experimental: as §1

[8] = test system: Echinochloa crus-galli (ECHCG); assay: Pre-emergence herbicidal glasshouse test, ECHCG; details: 125 g/h, evaluated after 13 days, five-point scale
Experimental: as §1

## CCCOC(=O)Nc1c(OC(F)F)ccc(C(=O)Nc2nnnn2C)c1Cl [Compound 1.016]
Setaria faberi (SETFA) [1]
  percentage damage caused to the plant, PRE Application SETFA: 3 (3=40-59%)
[2]
  percentage damage caused to the plant, POST Application ECHCG: 5 (5=80-100%)
[3]
  percentage damage caused to the plant, POST Application IPOHE: 3 (3=40-59%)
[4]
  percentage damage caused to the plant, PRE Application IPOHE: 2 (2=20-39%)
Setaria faberi (SETFA) [5]
  percentage damage caused to the plant, POST Application SETFA: 5 (5=80-100%)
[6]
  percentage damage caused to the plant, PRE Application AMARE: 5 (5=80-100%)
[7]
  percentage damage caused to the plant, POST Application AMARE: 4 (4=60-79%)
[8]
  percentage damage caused to the plant, PRE Application ECHCG: 4 (4=60-79%)

## Cn1nnnc1NC(=O)c1ccc(OC(F)(F)F)c(NC(=O)OCCC#N)c1Cl [Compound 1.012]
Setaria faberi (SETFA) [1]
  percentage damage caused to the plant, PRE Application SETFA: 5 (5=80-100%)
[2]
  percentage damage caused to the plant, POST Application ECHCG: 5 (5=80-100%)
[3]
  percentage damage caused to the plant, POST Application IPOHE: 5 (5=80-100%)
[4]
  percentage damage caused to the plant, PRE Application IPOHE: 4 (4=60-79%)
Setaria faberi (SETFA) [5]
  percentage damage caused to the plant, POST Application SETFA: 5 (5=80-100%)
[6]
  percentage damage caused to the plant, PRE Application AMARE: 5 (5=80-100%)
[7]
  percentage damage caused to the plant, POST Application AMARE: 5 (5=80-100%)
[8]
  percentage damage caused to the plant, PRE Application ECHCG: 5 (5=80-100%)

## Cn1nnnc1NC(=O)c1ccc(OC(F)F)c(NC(=O)OCCC#N)c1Cl [Compound 1.024]
Setaria faberi (SETFA) [1]
  percentage damage caused to the plant, PRE Application SETFA: 3 (3=40-59%)
[2]
  percentage damage caused to the plant, POST Application ECHCG: 5 (5=80-100%)
[3]
  percentage damage caused to the plant, POST Application IPOHE: 4 (4=60-79%)
[4]
  percentage damage caused to the plant, PRE Application IPOHE: 5 (5=80-100%)
Setaria faberi (SETFA) [5]
  percentage damage caused to the plant, POST Application SETFA: 5 (5=80-100%)
[6]
  percentage damage caused to the plant, PRE Application AMARE: 5 (5=80-100%)
[7]
  percentage damage caused to the plant, POST Application AMARE: 5 (5=80-100%)
[8]
  percentage damage caused to the plant, PRE Application ECHCG: 4 (4=60-79%)

## COC(=O)N(C)c1c(OC(F)F)ccc(C(=O)Nc2nnnn2C)c1Cl [Compound 1.042]
Setaria faberi (SETFA) [1]
  percentage damage caused to the plant, PRE Application SETFA: 5 (5=80-100%)
[2]
  percentage damage caused to the plant, POST Application ECHCG: 5 (5=80-100%)
[3]
  percentage damage caused to the plant, POST Application IPOHE: 5 (5=80-100%)
[4]
  percentage damage caused to the plant, PRE Application IPOHE: 4 (4=60-79%)
Setaria faberi (SETFA) [5]
  percentage damage caused to the plant, POST Application SETFA: 5 (5=80-100%)
[6]
  percentage damage caused to the plant, PRE Application AMARE: 5 (5=80-100%)
[7]
  percentage damage caused to the plant, POST Application AMARE: 5 (5=80-100%)
[8]
  percentage damage caused to the plant, PRE Application ECHCG: 5 (5=80-100%)

## Cn1nnnc1NC(=O)c1ccc(OC(F)F)c(NC(=O)OCC(F)F)c1Cl [Compound 1.015]
Setaria faberi (SETFA) [1]
  percentage damage caused to the plant, PRE Application SETFA: 5 (5=80-100%)
[2]
  percentage damage caused to the plant, POST Application ECHCG: 5 (5=80-100%)
[3]
  percentage damage caused to the plant, POST Application IPOHE: 4 (4=60-79%)
[4]
  percentage damage caused to the plant, PRE Application IPOHE: 3 (3=40-59%)
Setaria faberi (SETFA) [5]
  percentage damage caused to the plant, POST Application SETFA: 5 (5=80-100%)
[6]
  percentage damage caused to the plant, PRE Application AMARE: 5 (5=80-100%)
[7]
  percentage damage caused to the plant, POST Application AMARE: 5 (5=80-100%)
[8]
  percentage damage caused to the plant, PRE Application ECHCG: 5 (5=80-100%)

## CCOC(=O)N(CC)c1c(OC(F)(F)F)ccc(C(=O)Nc2nnnn2C)c1Cl [Compound 1.031]
Setaria faberi (SETFA) [1]
  percentage damage caused to the plant, PRE Application SETFA: 5 (5=80-100%)
[2]
  percentage damage caused to the plant, POST Application ECHCG: 5 (5=80-100%)
[3]
  percentage damage caused to the plant, POST Application IPOHE: 5 (5=80-100%)
[4]
  percentage damage caused to the plant, PRE Application IPOHE: 5 (5=80-100%)
Setaria faberi (SETFA) [5]
  percentage damage caused to the plant, POST Application SETFA: 5 (5=80-100%)
[6]
  percentage damage caused to the plant, PRE Application AMARE: 5 (5=80-100%)
[7]
  percentage damage caused to the plant, POST Application AMARE: 5 (5=80-100%)
[8]
  percentage damage caused to the plant, PRE Application ECHCG: 5 (5=80-100%)

## Cn1nnnc1NC(=O)c1ccc(OC(F)F)c(NC(=O)OC2COC2)c1Cl [Compound 1.026]
Setaria faberi (SETFA) [1]
  percentage damage caused to the plant, PRE Application SETFA: 3 (3=40-59%)
[2]
  percentage damage caused to the plant, POST Application ECHCG: 5 (5=80-100%)
[3]
  percentage damage caused to the plant, POST Application IPOHE: 5 (5=80-100%)
[4]
  percentage damage caused to the plant, PRE Application IPOHE: 4 (4=60-79%)
[6]
  percentage damage caused to the plant, PRE Application AMARE: 5 (5=80-100%)
[7]
  percentage damage caused to the plant, POST Application AMARE: 5 (5=80-100%)
[8]
  percentage damage caused to the plant, PRE Application ECHCG: 5 (5=80-100%)

## CC(=O)N1CCC(OC(=O)Nc2c(OC(F)F)ccc(C(=O)Nc3nnnn3C)c2Cl)CC1 [Compound 1.023]
Setaria faberi (SETFA) [1]
  percentage damage caused to the plant, PRE Application SETFA: 1 (1=0-19%)
[2]
  percentage damage caused to the plant, POST Application ECHCG: 3 (3=40-59%)
[3]
  percentage damage caused to the plant, POST Application IPOHE: 1 (1=0-19%)
[4]
  percentage damage caused to the plant, PRE Application IPOHE: 2 (2=20-39%)
Setaria faberi (SETFA) [5]
  percentage damage caused to the plant, POST Application SETFA: 2 (2=20-39%)
[6]
  percentage damage caused to the plant, PRE Application AMARE: 3 (3=40-59%)
[7]
  percentage damage caused to the plant, POST Application AMARE: 4 (4=60-79%)
[8]
  percentage damage caused to the plant, PRE Application ECHCG: 1 (1=0-19%)
